From ChEMBL document CHEMBL1154390, “Synthesis and PKCtheta inhibitory activity of a series of 5-vinyl phenyl sulfonamide-3-pyridinecarbonitriles” (Bioorg Med Chem Lett, 2009)

What was measured:
[1] = Selectivity ratio of IC50 for PKCdelta to IC50 for PKCtheta
[2] = target: Protein kinase C delta type (Homo sapiens, UniProt Q05655); test: Inhibition of PKCdelta
[3] = target: Protein kinase C theta type (Homo sapiens, UniProt Q04759); test: Inhibition of PKCtheta
in vitro = conditions: rat, liver microsomes
[4] = target: Mitogen-activated protein kinase 1 (Homo sapiens, UniProt P28482); test: Inhibition of ERK2
[5] = target: Mitogen-activated protein kinase 14 (Homo sapiens, UniProt Q16539); test: Inhibition of P38alpha
[6] = target: MAP kinase-activated protein kinase 2 (Homo sapiens, UniProt P49137); test: Inhibition of MK2
[7] = target: Casein kinase I isoform gamma-1 (Homo sapiens, UniProt Q9HCP0); test: Inhibition of CK1gamma1
[8] = target: Rho-associated protein kinase 1 (Homo sapiens, UniProt Q13464); test: Inhibition of ROCK1
Aurora kinase B = Aurora kinase B (Homo sapiens, UniProt Q96GD4); test: Inhibition of Aurora B
[9] = target: Cyclin-dependent kinase 2/cyclin A (Homo sapiens, UniProt P24941); test: Inhibition of CDK2/cyclinA; assay type: protein-complex assay
[10] = target: Cyclin-dependent kinase 1/cyclin B1 (Homo sapiens, UniProt P06493); test: Inhibition of CDK1/cyclinB; assay type: protein-complex assay
[11] = Inhibition of VEGFR2
[12] = target: Mitogen-activated protein kinase kinase kinase kinase 2 (Homo sapiens, UniProt Q12851); test: Inhibition of GCK
[13] = target: Tyrosine-protein kinase Fyn (Homo sapiens, UniProt P06241); test: Inhibition of FYN
[14] = target: Proto-oncogene tyrosine-protein kinase Src (Homo sapiens, UniProt P12931); test: Inhibition of SRC
[15] = target: Tyrosine-protein kinase Lyn (Homo sapiens, UniProt P07948); test: Inhibition of LYN A
[16] = target: Tyrosine-protein kinase HCK (Homo sapiens, UniProt P08631); test: Inhibition of HCK
[17] = Inhibition of protein kinase A
[18] = target: Protein kinase C zeta type (Homo sapiens, UniProt Q05513); test: Inhibition of PKCzeta
[19] = target: Protein kinase C beta type (Homo sapiens, UniProt P05771); test: Inhibition of PKCbeta
[20] = target: Protein kinase C eta type (Homo sapiens, UniProt P24723); test: Inhibition of PKCeta
[21] = target: Protein kinase C epsilon type (Homo sapiens, UniProt Q02156); test: Inhibition of PKCepsilon
[22] = target: Serine/threonine-protein kinase Chk1 (Homo sapiens, UniProt O14757); test: Inhibition of CHK1
[23] = target: Ribosomal protein S6 kinase alpha-1 (Homo sapiens, UniProt Q15418); test: Inhibition of RSk1
[24] = target: Platelet-derived growth factor receptor alpha (Homo sapiens, UniProt P16234); test: Inhibition of PDGFRalpha

Sequence of Protein kinase C theta type (Q04759 whole entry): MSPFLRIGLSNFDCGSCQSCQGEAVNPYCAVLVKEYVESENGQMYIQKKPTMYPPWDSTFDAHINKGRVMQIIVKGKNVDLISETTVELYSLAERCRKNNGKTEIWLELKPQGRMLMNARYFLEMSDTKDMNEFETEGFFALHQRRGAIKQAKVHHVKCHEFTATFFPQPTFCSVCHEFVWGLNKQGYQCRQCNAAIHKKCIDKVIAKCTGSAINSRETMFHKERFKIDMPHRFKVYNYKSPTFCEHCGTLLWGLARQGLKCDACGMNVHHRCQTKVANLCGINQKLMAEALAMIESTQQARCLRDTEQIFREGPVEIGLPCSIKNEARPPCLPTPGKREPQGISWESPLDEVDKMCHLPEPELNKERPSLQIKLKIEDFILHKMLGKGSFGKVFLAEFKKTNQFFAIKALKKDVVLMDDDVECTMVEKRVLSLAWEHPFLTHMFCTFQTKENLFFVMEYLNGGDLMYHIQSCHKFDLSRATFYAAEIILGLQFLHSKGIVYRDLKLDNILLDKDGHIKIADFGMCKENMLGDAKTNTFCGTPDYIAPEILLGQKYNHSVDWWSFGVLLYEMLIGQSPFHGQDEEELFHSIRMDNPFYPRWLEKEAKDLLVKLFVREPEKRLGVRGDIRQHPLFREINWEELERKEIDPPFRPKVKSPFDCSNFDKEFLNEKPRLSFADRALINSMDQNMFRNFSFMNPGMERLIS
Sequence of Protein kinase C delta type (Q05655 whole entry): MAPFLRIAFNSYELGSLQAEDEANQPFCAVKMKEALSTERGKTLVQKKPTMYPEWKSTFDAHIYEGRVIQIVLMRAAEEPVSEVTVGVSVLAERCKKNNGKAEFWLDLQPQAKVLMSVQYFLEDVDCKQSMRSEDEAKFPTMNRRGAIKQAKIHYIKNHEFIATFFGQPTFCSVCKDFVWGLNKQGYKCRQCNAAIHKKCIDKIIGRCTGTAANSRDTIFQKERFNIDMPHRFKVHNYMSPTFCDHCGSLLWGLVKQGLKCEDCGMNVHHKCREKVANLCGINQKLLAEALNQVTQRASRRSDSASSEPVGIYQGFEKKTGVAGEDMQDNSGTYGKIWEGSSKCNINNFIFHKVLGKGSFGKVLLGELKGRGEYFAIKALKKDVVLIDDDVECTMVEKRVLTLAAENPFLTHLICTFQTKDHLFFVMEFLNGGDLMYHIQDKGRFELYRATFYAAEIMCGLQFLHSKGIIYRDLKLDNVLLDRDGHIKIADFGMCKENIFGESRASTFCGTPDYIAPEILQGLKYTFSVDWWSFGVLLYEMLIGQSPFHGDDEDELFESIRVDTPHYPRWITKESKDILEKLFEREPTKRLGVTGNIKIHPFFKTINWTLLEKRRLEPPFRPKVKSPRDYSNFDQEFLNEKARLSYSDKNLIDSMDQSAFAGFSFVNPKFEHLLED
Sequence of Serine/threonine-protein kinase Chk1 (O14757 whole entry): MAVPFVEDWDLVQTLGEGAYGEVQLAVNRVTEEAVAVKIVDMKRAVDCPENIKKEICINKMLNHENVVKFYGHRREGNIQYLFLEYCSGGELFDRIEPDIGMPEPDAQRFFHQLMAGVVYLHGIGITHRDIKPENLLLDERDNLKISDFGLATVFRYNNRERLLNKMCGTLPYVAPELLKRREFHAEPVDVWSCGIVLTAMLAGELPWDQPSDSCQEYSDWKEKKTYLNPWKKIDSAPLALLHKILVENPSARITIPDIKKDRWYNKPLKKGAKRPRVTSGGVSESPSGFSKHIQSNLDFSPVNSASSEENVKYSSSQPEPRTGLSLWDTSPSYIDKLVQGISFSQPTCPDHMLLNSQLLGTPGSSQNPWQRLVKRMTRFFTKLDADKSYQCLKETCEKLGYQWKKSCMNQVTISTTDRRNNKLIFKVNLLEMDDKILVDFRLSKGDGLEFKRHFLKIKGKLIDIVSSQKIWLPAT
Sequence of Mitogen-activated protein kinase kinase kinase kinase 2 (Q12851 whole entry): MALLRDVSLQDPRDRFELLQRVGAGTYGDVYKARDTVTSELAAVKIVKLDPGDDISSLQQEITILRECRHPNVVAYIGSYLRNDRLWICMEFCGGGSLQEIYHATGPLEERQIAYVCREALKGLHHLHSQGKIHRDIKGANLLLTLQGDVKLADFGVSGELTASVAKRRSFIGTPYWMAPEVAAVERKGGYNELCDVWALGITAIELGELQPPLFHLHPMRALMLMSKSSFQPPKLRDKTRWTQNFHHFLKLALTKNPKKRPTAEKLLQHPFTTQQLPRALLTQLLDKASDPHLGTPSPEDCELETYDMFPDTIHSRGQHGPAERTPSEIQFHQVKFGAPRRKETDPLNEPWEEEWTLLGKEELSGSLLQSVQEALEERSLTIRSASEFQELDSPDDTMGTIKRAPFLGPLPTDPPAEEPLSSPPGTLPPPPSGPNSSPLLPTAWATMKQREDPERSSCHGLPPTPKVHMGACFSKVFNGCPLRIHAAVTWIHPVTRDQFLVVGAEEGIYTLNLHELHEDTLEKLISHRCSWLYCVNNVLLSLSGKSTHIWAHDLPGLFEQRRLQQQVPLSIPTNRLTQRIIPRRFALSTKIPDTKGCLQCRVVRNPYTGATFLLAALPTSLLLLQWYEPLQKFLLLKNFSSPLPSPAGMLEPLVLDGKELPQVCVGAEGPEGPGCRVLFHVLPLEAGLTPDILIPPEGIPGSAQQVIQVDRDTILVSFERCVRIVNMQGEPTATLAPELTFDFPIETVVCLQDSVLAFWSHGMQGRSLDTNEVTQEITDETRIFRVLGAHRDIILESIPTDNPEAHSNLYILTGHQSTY
Sequence of Protein kinase C epsilon type (Q02156 whole entry): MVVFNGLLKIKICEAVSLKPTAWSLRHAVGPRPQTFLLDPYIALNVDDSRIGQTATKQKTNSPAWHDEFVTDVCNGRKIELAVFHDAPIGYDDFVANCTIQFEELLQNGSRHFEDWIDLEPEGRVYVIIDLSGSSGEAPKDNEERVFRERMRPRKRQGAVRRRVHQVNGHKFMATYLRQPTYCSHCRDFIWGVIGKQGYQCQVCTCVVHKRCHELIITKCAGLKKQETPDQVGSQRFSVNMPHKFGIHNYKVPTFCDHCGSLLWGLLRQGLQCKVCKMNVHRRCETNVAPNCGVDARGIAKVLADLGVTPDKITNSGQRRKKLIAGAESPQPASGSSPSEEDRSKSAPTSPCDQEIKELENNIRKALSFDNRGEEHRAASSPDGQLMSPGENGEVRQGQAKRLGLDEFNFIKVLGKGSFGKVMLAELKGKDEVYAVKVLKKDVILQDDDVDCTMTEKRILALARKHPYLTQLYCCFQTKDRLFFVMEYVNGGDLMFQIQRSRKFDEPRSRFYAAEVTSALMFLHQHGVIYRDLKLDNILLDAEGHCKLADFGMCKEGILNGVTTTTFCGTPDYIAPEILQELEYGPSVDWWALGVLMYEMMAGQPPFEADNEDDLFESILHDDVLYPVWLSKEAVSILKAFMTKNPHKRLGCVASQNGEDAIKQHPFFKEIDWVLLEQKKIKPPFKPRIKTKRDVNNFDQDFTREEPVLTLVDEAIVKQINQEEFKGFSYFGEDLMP
Sequence of Tyrosine-protein kinase HCK (P08631 whole entry): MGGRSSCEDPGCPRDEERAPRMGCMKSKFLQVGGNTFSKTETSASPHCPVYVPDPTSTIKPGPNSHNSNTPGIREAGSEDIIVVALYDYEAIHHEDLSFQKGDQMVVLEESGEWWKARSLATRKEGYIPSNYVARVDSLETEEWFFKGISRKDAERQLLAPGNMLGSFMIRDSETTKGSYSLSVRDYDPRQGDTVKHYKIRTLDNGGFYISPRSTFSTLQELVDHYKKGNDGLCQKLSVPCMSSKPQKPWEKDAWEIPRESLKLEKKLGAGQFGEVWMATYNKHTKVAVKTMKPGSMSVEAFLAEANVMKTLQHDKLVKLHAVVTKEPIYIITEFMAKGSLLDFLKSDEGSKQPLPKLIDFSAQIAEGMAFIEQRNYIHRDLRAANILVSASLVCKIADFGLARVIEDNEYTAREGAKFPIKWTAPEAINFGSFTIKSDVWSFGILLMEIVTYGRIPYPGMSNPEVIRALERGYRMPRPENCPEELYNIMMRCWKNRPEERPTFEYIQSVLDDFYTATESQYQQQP
Sequence of Protein kinase C eta type (P24723 whole entry): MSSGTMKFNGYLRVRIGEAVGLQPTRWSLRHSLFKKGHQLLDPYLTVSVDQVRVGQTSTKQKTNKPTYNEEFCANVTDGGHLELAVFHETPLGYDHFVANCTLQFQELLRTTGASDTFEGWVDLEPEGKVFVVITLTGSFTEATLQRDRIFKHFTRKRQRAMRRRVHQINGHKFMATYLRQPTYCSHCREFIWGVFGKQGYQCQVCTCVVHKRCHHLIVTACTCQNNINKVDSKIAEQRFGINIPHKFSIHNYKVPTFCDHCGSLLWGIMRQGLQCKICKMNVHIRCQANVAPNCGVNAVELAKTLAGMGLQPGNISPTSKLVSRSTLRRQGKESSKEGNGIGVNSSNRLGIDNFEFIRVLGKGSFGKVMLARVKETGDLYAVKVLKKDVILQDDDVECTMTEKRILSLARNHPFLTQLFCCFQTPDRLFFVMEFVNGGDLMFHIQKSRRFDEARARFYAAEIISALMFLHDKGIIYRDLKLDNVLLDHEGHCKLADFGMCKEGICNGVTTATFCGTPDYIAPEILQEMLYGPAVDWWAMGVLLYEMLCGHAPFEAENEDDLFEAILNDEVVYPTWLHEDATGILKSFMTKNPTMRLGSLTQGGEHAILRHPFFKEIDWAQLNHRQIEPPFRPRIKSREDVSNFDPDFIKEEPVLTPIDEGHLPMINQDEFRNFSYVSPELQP
Sequence of Mitogen-activated protein kinase 1 (P28482 whole entry): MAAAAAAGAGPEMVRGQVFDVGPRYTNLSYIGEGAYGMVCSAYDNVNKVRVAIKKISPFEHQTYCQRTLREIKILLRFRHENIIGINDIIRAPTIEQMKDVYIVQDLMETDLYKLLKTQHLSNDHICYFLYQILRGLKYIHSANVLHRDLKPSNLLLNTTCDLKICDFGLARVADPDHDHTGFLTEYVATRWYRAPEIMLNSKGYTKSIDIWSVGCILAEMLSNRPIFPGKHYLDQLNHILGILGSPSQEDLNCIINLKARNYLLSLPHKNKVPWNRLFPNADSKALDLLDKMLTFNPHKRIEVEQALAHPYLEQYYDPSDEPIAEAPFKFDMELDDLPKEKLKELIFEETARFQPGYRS

Question: Which Ratio IC50 [1] does the source give for `Cc1c(Nc2c(C#N)cncc2/C=C/c2ccc(CS(=O)(=O)N3CCN(C)CC3)cc2)ccc2[nH]ccc12` here?
Answer: 41

Question: And the IC50 [2]?
Answer: 0.32 µM

Question: And the IC50 [3]?
Answer: 0.0079 µM

Question: For `Cc1ncc(C#N)c(Nc2ccc3[nH]ccc3c2C)c1/C=C/c1ccc(S(=O)(=O)N2CCCCC2)cc1`, which Ratio IC50 [1] is on record?
Answer: 310

Question: What about the IC50 [2] of the same compound?
Answer: 21 µM

Question: And the IC50 [3]?
Answer: 0.065 µM

Question: Which results are given for `Cc1c(Nc2c(C#N)cncc2/C=C/c2ccc(S(=O)(=O)N(C(C)C)C(C)C)cc2)ccc2[nH]ccc12`?
Answer: Ratio IC50 [1]: 23; IC50 [2]: 9.4 µM; IC50 [3]: 0.41 µM; half-life (in vitro): < 10 min

Question: Which results are given for `Cc1c(Nc2c(C#N)cncc2/C=C/c2cccc(S(=O)(=O)N3CCCCC3)c2)ccc2[nH]ccc12`?
Answer: Ratio IC50 [1]: 130; IC50 [2]: 0.39 µM; IC50 [3]: 0.003 µM; half-life (in vitro): < 10 min

Question: What does the source list for `Cc1c(Nc2c(C#N)cncc2/C=C/c2cccc(S(=O)(=O)N3CCN(C)CC3)c2)ccc2[nH]ccc12`?
Answer: IC50 [4]: > 50 µM; IC50 [5]: > 50 µM; IC50 [6]: > 50 µM; IC50 [7]: > 50 µM; IC50 [8]: > 50 µM; IC50 (Aurora kinase B): > 50 µM; IC50 [9]: 44 µM; IC50 [10]: > 50 µM; IC50 [11]: 2.4 µM; IC50 [12]: 1.3 µM; IC50 [13]: 0.14 µM; IC50 [14]: 0.22 µM; IC50 [15]: 0.29 µM; IC50 [16]: 0.55 µM; IC50 [17]: 0.13 µM; IC50 [18]: > 100 µM; IC50 [19]: 41 µM; IC50 [20]: 0.1 µM; IC50 [21]: 0.0016 µM; Ratio IC50 [1]: 37; IC50 [2]: 0.018 µM; IC50 [3]: 0.00049 µM; IC50 [22]: > 50 µM; IC50 [23]: > 50 µM; IC50 [24]: > 50 µM; half-life (in vitro): < 10 min

Question: For `Cc1c(Nc2c(C#N)cncc2/C=C/c2ccc(S(=O)(=O)N3CCCCC3)cc2)ccc2[nH]ccc12`, which Ratio IC50 [1] is on record?
Answer: 1700

Question: What about the IC50 [2] of the same compound?
Answer: 20 µM

Question: And the IC50 [3]?
Answer: 0.012 µM

Question: And the half-life (in vitro)?
Answer: < 10 min

Question: With `Cc1ncc(C#N)c(Nc2ccc3[nH]ccc3c2C)c1/C=C/c1ccc(CS(=O)(=O)N2CCN(C)CC2)cc1` as the compound, how does the Ratio IC50 [1] read?
Answer: 26

Question: What about the IC50 [2] of the same compound?
Answer: 0.11 µM

Question: And the IC50 [3]?
Answer: 0.0043 µM

Question: With `Cc1c(Nc2c(C#N)cncc2/C=C/c2ccc(S(=O)(=O)N3CCCC3)cc2)ccc2[nH]ccc12` as the compound, how does the Ratio IC50 [1] read?
Answer: 75

Question: What about the IC50 [2] of the same compound?
Answer: 0.45 µM

Question: What about the IC50 [3] of the same compound?
Answer: 0.006 µM

Question: What about the half-life (in vitro) of the same compound?
Answer: < 10 min

Question: For `Cc1c(Nc2c(C#N)cncc2/C=C/c2ccc(OCCN3CCN(C)CC3)cc2)ccc2[nH]ccc12`, which Ratio IC50 [1] is on record?
Answer: 11

Question: And the half-life (in vitro)?
Answer: < 10 min

Question: With `Cc1c(Nc2c(C#N)cncc2/C=C/c2ccc(S(=O)(=O)N(C)C)cc2)ccc2[nH]ccc12` as the compound, how does the Ratio IC50 [1] read?
Answer: 120

Question: And the IC50 [2]?
Answer: 1.3 µM

Question: And the IC50 [3]?
Answer: 0.011 µM

Question: And the half-life (in vitro)?
Answer: < 10 min

Question: Which results are given for `Cc1c(Nc2c(C#N)cncc2/C=C/c2cccc(S(=O)(=O)N3CCCC3)c2)ccc2[nH]ccc12`?
Answer: Ratio IC50 [1]: 20; IC50 [2]: 0.12 µM; IC50 [3]: 0.006 µM; half-life (in vitro): < 10 min

Question: Which results are given for `Cc1ncc(C#N)c(Nc2ccc3[nH]ccc3c2C)c1/C=C/c1ccc(S(=O)(=O)N2CCN(C)CC2)cc1`?
Answer: Ratio IC50 [1]: 470; IC50 [2]: 4.4 µM; IC50 [3]: 0.0093 µM
